These results are taken from patent US9340590B2 (priority 2011, dated 2016).

Read-outs that look alike come from different tables or passages of the source. Positions of bridges follow the written chain, without caps; N, C: chain ends. Non-standard residues stand in square brackets, D forms with d. Residues, ends and D or L forms follow the SMILES beside them. NMeF = CN[C@@H](Cc1ccccc1)C(=O)O; 3Pal = N[C@@H](Cc1cccnc1)C(=O)O

Common to all, as to test: cell-based
One assay deals with hNav1.7 (Homo sapiens, UniProt Q15858). It counts as cell-based. Conditions: IonWorks Quattro, read-out: IWQ Use Nav1.7. For orientation: In patch-clamp work, channel activity is measured electrically.
For a further assay, the target named is hNav1.5 (Homo sapiens, UniProt Q14524).
A further assay concerns the target hNav1.3 (Homo sapiens, UniProt Q9NY46). The following applies: IonWorks Quattro, read-out: IWQ Use Nav1.3.
Where [1] appears, read: IonWorks Quattro, use-dependent block, hNav1.5, read-out: IWQ Use Nav1.5.
Setting [2] is: use-dependent protocol, hNav1.7.
Where [3] appears, read: use-dependent protocol, hNav1.3.
Where [4] appears, read: clamped to −110 mV, depolarized to −10 mV, 5 min after compound, n=2.

Sequence of hNav1.3 (Q9NY46 whole entry, looked up): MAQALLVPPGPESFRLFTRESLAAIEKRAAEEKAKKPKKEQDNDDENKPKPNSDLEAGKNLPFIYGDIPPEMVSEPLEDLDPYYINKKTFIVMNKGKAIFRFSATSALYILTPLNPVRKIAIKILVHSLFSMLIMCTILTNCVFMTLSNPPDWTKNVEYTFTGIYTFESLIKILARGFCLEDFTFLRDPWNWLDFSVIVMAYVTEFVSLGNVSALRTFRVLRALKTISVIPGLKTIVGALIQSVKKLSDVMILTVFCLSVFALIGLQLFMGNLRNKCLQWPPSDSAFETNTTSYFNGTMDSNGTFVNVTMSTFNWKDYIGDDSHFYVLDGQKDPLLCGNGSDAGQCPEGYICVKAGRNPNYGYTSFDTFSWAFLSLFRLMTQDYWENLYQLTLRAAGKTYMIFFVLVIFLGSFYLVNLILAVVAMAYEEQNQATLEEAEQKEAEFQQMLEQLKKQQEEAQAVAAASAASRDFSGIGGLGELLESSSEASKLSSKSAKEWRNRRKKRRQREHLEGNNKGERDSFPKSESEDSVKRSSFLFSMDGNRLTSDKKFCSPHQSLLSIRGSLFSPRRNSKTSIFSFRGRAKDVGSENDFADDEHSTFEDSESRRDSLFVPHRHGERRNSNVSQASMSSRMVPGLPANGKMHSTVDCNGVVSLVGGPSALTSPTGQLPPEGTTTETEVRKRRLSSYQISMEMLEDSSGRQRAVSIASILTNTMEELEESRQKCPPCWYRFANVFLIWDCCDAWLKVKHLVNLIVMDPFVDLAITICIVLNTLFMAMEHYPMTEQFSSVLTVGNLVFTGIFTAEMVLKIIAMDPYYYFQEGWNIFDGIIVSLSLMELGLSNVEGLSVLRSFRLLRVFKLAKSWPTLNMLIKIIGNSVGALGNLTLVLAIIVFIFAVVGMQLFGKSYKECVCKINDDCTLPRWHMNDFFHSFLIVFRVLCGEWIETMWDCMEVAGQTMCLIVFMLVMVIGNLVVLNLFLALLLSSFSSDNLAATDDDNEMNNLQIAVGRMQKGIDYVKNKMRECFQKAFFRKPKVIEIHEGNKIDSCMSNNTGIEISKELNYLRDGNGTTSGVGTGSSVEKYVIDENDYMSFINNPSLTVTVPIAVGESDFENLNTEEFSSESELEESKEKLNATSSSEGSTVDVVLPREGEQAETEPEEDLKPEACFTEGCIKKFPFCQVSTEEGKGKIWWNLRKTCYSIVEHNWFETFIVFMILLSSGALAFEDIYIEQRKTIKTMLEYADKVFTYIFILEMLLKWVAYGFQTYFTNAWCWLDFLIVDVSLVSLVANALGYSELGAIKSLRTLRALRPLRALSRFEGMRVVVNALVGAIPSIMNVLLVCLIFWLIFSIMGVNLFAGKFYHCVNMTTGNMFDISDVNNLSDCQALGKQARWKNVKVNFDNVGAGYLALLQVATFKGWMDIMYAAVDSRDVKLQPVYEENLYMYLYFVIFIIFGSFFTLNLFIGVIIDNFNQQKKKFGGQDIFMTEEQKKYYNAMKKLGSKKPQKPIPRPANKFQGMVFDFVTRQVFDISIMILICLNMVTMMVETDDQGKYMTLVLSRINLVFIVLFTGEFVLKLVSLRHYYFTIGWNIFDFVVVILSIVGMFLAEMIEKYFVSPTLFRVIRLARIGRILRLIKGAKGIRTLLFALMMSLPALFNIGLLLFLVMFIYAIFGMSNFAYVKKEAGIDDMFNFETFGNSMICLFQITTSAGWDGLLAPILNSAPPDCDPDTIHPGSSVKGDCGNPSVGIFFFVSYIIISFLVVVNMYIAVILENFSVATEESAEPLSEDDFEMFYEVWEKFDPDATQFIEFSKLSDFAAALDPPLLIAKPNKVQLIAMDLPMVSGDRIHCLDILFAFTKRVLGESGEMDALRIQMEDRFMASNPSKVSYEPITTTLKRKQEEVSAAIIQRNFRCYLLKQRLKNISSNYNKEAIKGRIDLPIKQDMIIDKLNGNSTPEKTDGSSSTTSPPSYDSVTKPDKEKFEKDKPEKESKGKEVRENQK
Sequence of hNav1.7 (Q15858 whole entry, looked up): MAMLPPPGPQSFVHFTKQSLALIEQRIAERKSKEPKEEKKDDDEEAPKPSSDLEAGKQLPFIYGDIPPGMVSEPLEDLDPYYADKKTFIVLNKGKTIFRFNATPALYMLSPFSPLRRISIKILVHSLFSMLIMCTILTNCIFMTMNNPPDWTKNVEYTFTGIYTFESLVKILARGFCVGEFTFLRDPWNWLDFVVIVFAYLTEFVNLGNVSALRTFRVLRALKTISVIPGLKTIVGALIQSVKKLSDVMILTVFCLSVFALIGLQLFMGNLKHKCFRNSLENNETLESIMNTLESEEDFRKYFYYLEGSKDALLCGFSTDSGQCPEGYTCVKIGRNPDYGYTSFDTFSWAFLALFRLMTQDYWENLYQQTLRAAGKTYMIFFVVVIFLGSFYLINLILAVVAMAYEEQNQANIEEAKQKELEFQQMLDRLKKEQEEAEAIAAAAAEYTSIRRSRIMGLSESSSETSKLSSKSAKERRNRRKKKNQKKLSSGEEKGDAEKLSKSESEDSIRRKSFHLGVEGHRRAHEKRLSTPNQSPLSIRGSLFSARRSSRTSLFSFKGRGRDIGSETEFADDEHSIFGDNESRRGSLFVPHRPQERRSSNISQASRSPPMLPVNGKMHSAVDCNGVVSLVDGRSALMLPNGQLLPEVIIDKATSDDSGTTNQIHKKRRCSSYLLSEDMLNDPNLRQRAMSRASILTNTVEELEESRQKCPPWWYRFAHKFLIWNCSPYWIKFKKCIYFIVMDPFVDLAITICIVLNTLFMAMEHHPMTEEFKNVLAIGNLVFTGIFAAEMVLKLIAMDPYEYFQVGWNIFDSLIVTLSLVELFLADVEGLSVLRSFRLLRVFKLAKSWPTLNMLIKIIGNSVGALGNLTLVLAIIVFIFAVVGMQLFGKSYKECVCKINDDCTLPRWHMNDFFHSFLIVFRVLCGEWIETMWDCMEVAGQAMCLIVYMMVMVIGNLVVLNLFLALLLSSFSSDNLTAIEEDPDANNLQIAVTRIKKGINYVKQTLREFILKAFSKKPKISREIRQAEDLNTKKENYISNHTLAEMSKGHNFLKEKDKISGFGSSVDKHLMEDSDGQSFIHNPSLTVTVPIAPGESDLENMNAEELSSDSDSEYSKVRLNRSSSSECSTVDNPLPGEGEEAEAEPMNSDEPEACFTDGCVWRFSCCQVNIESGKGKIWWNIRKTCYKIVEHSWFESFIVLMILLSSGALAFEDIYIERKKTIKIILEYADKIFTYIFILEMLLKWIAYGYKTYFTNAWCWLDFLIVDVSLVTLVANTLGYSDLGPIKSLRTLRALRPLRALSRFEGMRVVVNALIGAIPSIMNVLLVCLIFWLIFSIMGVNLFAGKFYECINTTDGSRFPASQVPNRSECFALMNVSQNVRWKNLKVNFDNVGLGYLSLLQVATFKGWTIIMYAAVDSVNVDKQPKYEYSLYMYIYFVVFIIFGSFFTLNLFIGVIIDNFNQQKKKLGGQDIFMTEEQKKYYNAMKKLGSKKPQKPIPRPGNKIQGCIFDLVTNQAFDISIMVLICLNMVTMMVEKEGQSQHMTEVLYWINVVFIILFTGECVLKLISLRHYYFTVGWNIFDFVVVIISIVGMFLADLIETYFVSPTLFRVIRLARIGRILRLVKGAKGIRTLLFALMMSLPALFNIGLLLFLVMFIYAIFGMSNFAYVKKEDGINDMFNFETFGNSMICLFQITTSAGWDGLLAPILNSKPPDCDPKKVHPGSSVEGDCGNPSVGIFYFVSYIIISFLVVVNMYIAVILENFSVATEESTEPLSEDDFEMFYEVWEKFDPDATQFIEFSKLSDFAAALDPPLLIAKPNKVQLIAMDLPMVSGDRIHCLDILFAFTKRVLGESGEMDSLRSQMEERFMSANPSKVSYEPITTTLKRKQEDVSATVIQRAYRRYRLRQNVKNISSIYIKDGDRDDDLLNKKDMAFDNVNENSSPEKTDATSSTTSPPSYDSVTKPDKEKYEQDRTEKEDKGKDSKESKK

Regarding `CC[C@H](C)[C@@H]1NC(=O)[C@@H]2CSSC[C@@H]3NC(=O)[C@H](C(C)C)NC(=O)[C@H](CC(C)C)NC(=O)[C@H](CC(N)=O)NC(=O)[C@@H]4CCCN4C(=O)[C@H](CCCNC(=N)N)NC(=O)[C@H](CSSC[C@H](NC(=O)[C@@H](N)CC(=O)O)C(=O)N[C@@H](CC(C)C)C(=O)NCC(=O)N[C@@H](Cc4ccccc4)C(=O)N[C@@H](CCSC)C(=O)N[C@@H](CCCNC(=N)N)C(=O)N[C@@H](CCCCN)C(=O)N2)NC(=O)[C@H](CSSC[C@@H](C(=O)N[C@@H](CCCCN)C(=O)N[C@@H](Cc2ccc(O)cc2)C(=O)N[C@H](C(=O)N[C@@H](Cc2ccccc2)C(N)=O)C(C)C)NC(=O)[C@H](Cc2ccccc2)N(C)C(=O)[C@H](CCCCN)NC(=O)[C@H](Cc2c[nH]cn2)NC(=O)[C@H]([C@@H](C)O)NC(=O)[C@H](CCCNC(=N)N)NC(=O)[C@H](CO)NC3=O)NC(=O)[C@H](CCCCN)NC(=O)[C@H](CC(=O)O)NC(=O)[C@H](CC(N)=O)NC(=O)[C@H](CC(=O)O)NC(=O)[C@@H]2CCCN2C1=O` [compound 359] (H-DCLGFMRKCIPDNDKCCRPNLVCSRTHK[NMeF]CKYVF-NH2; disulfide 2-17, 9-23, 16-30), the IC50 at hNav1.7 (Table 24, use, […]) was determined as 19200 nM; at hNav1.5 (Table 24, IonWorks Quattro, use, […], read-out: IWQ Use Nav1.5) it was 18800 nM; at hNav1.3 (Table 24, use, […]) it was 7390 nM.
`CC[C@H](C)[C@@H]1NC(=O)[C@@H]2CSSC[C@@H]3NC(=O)[C@H](C(C)C)NC(=O)[C@H](CC(C)C)NC(=O)[C@H](CC(N)=O)NC(=O)[C@@H]4CCCN4C(=O)[C@H](CCCNC(=N)N)NC(=O)[C@H](CSSC[C@H](NC(=O)[C@@H](N)CC(=O)O)C(=O)N[C@@H](CC(C)C)C(=O)NCC(=O)N[C@@H](Cc4ccccc4)C(=O)N[C@@H](Cc4c[nH]c5ccccc45)C(=O)N[C@@H](CCCNC(=N)N)C(=O)N[C@@H](CCCCN)C(=O)N2)NC(=O)[C@H](CSSC[C@@H](C(=O)N[C@@H](CCCCN)C(=O)N[C@@H](Cc2ccc(O)cc2)C(=O)N[C@H](C(=O)N[C@@H](Cc2ccccc2)C(N)=O)C(C)C)NC(=O)[C@H](Cc2c[nH]c4ccccc24)NC(=O)[C@H](CCCNC(=N)N)NC(=O)[C@H](Cc2c[nH]cn2)NC(=O)[C@H]([C@@H](C)O)NC(=O)[C@H](CCCNC(=N)N)NC(=O)[C@H](CO)NC3=O)NC(=O)[C@H](CCCCN)NC(=O)[C@H](CC(=O)O)NC(=O)[C@H](CC(N)=O)NC(=O)[C@H](CC(=O)O)NC(=O)[C@@H]2CCCN2C1=O` [compound 448] (H-DCLGFWRKCIPDNDKCCRPNLVCSRTHRWCKYVF-NH2; disulfide 2-17, 9-23, 16-30): the IC50 was determined as 10 nM on hNav1.7 (use-dependent block, hNav1.7); 2910 nM at hNav1.5 (setting [1]); 10 nM on hNav1.3 (use-dependent block, hNav1.3).
Take `CCCC[C@@H]1NC(=O)CNC(=O)[C@H](CC(C)C)NC(=O)[C@@H](NC(=O)[C@@H](N)CC(=O)O)CSSC[C@@H]2NC(=O)[C@@H]3CSSC[C@@H](C(=O)N[C@@H](CCCCN)C(=O)N[C@@H](Cc4ccc(O)cc4)C(=O)N[C@H](C(=O)N[C@@H](Cc4ccccc4)C(N)=O)C(C)C)NC(=O)[C@H](Cc4c[nH]c5ccccc45)NC(=O)[C@H](CCCCN)NC(=O)[C@H](Cc4c[nH]cn4)NC(=O)[C@H]([C@@H](C)O)NC(=O)[C@H](CCCNC(=N)N)NC(=O)[C@H](CO)NC(=O)[C@H](CSSC[C@H](NC(=O)[C@H](CCCCN)NC(=O)[C@H](CCCNC(=N)N)NC(=O)[C@H](CCSC)NC1=O)C(=O)N[C@@H]([C@@H](C)CC)C(=O)N1CCC[C@H]1C(=O)N[C@@H](CC(=O)O)C(=O)N[C@@H](CC(N)=O)C(=O)N[C@@H](CC(=O)O)C(=O)N[C@@H](CCCCN)C(=O)N3)NC(=O)[C@H](C(C)C)NC(=O)[C@H](CC(C)C)NC(=O)[C@H](CC(N)=O)NC(=O)[C@@H]1CCCN1C(=O)[C@H](CCCNC(=N)N)NC2=O` [compound 651]: the results for the IC50 on hNav1.7 (setting [2]), against hNav1.5 (IWQ Use Nav1.5) and on hNav1.3 (setting [3]) were 77 nM, over 5000 nM and 170 nM, respectively.
As to `CC[C@H](C)[C@@H]1NC(=O)[C@@H]2CSSC[C@@H]3NC(=O)[C@H](C(C)C)NC(=O)[C@H](CC(C)C)NC(=O)[C@H](CC(N)=O)NC(=O)[C@@H]4CCCN4C(=O)[C@H](CCCNC(=N)N)NC(=O)[C@H](CSSC[C@H](NC(=O)[C@@H](N)CC(=O)O)C(=O)N[C@@H](CC(C)C)C(=O)NCC(=O)N[C@@H](C)C(=O)N[C@@H](CC(C)C)C(=O)N[C@@H](CCCNC(=N)N)C(=O)N[C@@H](CCCCN)C(=O)N2)NC(=O)[C@H](CSSC[C@@H](C(=O)N[C@@H](CCCCN)C(=O)N[C@@H](Cc2ccc(O)cc2)C(=O)N[C@H](C(=O)N[C@@H](Cc2ccccc2)C(=O)O)C(C)C)NC(=O)[C@H](Cc2c[nH]c4ccccc24)NC(=O)[C@H](CCC(=O)O)NC(=O)[C@H](Cc2c[nH]cn2)NC(=O)[C@H]([C@@H](C)O)NC(=O)[C@H](CCCNC(=N)N)NC(=O)[C@H](CO)NC3=O)NC(=O)[C@H](CCCCN)NC(=O)[C@H](CC(=O)O)NC(=O)[C@H](CC(N)=O)NC(=O)[C@H](CC(=O)O)NC(=O)[C@@H]2CCCN2C1=O` [compound 855], the IC50 at hNav1.7 (use-dependent block, hNav1.7) is over 5000 nM; at hNav1.5 (setting [1]), over 5000 nM; at hNav1.3 (use-dependent block, hNav1.3), over 5000 nM.
For the compound `CC[C@H](C)[C@@H]1NC(=O)[C@@H]2CSSC[C@@H]3NC(=O)[C@H](C(C)C)NC(=O)[C@H](CC(C)C)NC(=O)[C@H](CC(N)=O)NC(=O)[C@@H]4CCCN4C(=O)[C@H](CCCNC(=N)N)NC(=O)[C@H](CSSC[C@H](NC(=O)[C@@H](N)CC(=O)O)C(=O)N[C@@H](CC(C)C)C(=O)NCC(=O)N[C@@H](C)C(=O)N[C@@H](CCSC)C(=O)N[C@@H](CCCNC(=N)N)C(=O)N[C@@H](CCCCN)C(=O)N2)NC(=O)[C@H](CSSC[C@@H](C(=O)N[C@@H](CCCCN)C(=O)N[C@@H](Cc2ccc(O)cc2)C(=O)N[C@H](C(=O)N[C@@H](Cc2ccccc2)C(N)=O)C(C)C)NC(=O)[C@H](Cc2c[nH]c4ccccc24)NC(=O)[C@H](Cc2cccnc2)NC(=O)[C@H](Cc2c[nH]cn2)NC(=O)[C@H]([C@@H](C)O)NC(=O)[C@H](CCCNC(=N)N)NC(=O)[C@H](CO)NC3=O)NC(=O)[C@H](CCCCN)NC(=O)[C@H](CC(=O)O)NC(=O)[C@H](CC(N)=O)NC(=O)[C@H](CC(=O)O)NC(=O)[C@@H]2CCCN2C1=O` [compound 740] (H-DCLGAMRKCIPDNDKCCRPNLVCSRTH[3Pal]WCKYVF-NH2; disulfide 2-17, 9-23, 16-30), the IC50 on hNav1.7 (use-dependent block, hNav1.7) was 1500 nM; at hNav1.5 (setting [1]), 31100 nM; at hNav1.3 (use-dependent block, hNav1.3), over 5000 nM.
Turning to `CC[C@H](C)[C@@H]1NC(=O)[C@@H]2CSSC[C@@H]3NC(=O)[C@H](C(C)C)NC(=O)[C@H](CC(C)C)NC(=O)[C@H](CC(N)=O)NC(=O)[C@@H]4CCCN4C(=O)[C@H](CCCNC(=N)N)NC(=O)[C@H](CSSC[C@H](NC(=O)[C@@H](N)CC(=O)O)C(=O)N[C@@H](CC(C)C)C(=O)NCC(=O)N(C)[C@@H](C(C)C)C(=O)N[C@@H](CC(C)C)C(=O)N[C@@H](CCCNC(=N)N)C(=O)N[C@@H](CCCCN)C(=O)N2)NC(=O)[C@H](CSSC[C@@H](C(=O)N[C@@H](CCCCN)C(=O)N[C@@H](Cc2ccc(O)cc2)C(=O)N[C@H](C(=O)N[C@@H](Cc2ccccc2)C(N)=O)C(C)C)NC(=O)[C@H](Cc2c[nH]c4ccccc24)NC(=O)[C@H](CCCCN)NC(=O)[C@H](Cc2c[nH]cn2)NC(=O)[C@H]([C@@H](C)O)NC(=O)[C@H](CCCNC(=N)N)NC(=O)[C@H](CO)NC3=O)NC(=O)[C@H](CCCCN)NC(=O)[C@H](CC(=O)O)NC(=O)[C@H](CC(N)=O)NC(=O)[C@H](CC(=O)O)NC(=O)[C@@H]2CCCN2C1=O` [compound 672], the IC50 is 470 nM on hNav1.7 (setting [2]); over 5000 nM on hNav1.5 (IonWorks Quattro, use-dependent protocol, hNav1.5, read-out: IWQ Use Nav1.5); 750 nM at hNav1.3 (setting [3]).
Take `CC[C@H](C)[C@@H]1NC(=O)[C@@H]2CSSC[C@@H]3NC(=O)[C@H](C(C)C)NC(=O)[C@H](CC(C)C)NC(=O)[C@H](CC(N)=O)NC(=O)[C@@H]4CCCN4C(=O)[C@H](CCCNC(=N)N)NC(=O)[C@H](CSSC[C@H](NC(=O)[C@@H](N)CC(=O)O)C(=O)N[C@@H](CC(C)C)C(=O)NCC(=O)N(C)[C@@H](Cc4c[nH]c5ccccc45)C(=O)N[C@@H](CCSC)C(=O)N[C@@H](CCCNC(=N)N)C(=O)N[C@@H](CCCCN)C(=O)N2)NC(=O)[C@H](CSSC[C@@H](C(=O)N[C@@H](CCCCN)C(=O)N[C@@H](Cc2ccc(O)cc2)C(=O)N[C@H](C(=O)N[C@@H](Cc2ccccc2)C(N)=O)C(C)C)NC(=O)[C@H](Cc2c[nH]c4ccccc24)NC(=O)[C@H](CCCCN)NC(=O)[C@H](Cc2c[nH]cn2)NC(=O)[C@H]([C@@H](C)O)NC(=O)[C@H](CCCNC(=N)N)NC(=O)[C@H](CO)NC3=O)NC(=O)[C@H](CCCCN)NC(=O)[C@H](CC(=O)O)NC(=O)[C@H](CC(N)=O)NC(=O)[C@H](CC(=O)O)NC(=O)[C@@H]2CCCN2C1=O` [SEQ ID NO: 274]: the IC50 was 190 nM on hNav1.7 (setting [4]); over 5000 nM on hNav1.5 (IonWorks Quattro, clamped to −110 mV, depolarized to −10 mV, 5 min after compound, n=2, read-out: IWQ Use Nav1.5); 150 nM at hNav1.3 (setting [4]).
